Experimental data: US20260049103A1, “PEPTIDE, AND COMPOSITION THEREOF AND USE THEREOF” (WINKEY TECHNOLOGY USA INC, priority 2023, published 2026)
Non-standard residues stand in square brackets, D forms with d. *: point of attachment. Palmitoyl = CCCCCCCCCCCCCCCC(=O)*; Nle = CCCC[C@H](N)C(=O)O

Tests used:
[1] = test system: Human keratinocytes (HaCaT); assay: Cell proliferation assay (MTT) in HaCaT cells; format: cell-based; settings: FIG. 6; for cell activity / proliferation of HaCaT keratinocytes: 72 h, at low concentrations (tested 6.25, 12.5, 25 ppm)
Source text: Thiazolyl blue (MTT), dimethyl sulfoxide (DMSO), DMEM culture medium, fetal bovine serum, and PBS.
(§1) Human keratinocytes (HaCaT) were purchased from the Kunming Cell Bank of China Center for Type Culture Collection under the Chinese Academy of Sciences.
Polypeptide group: Peptide (4), peptide (9), peptide (13) and peptide (20). The test concentrations of all the above samples were 6.25 ppm, 12.5 ppm and 25 ppm.
(§2) Blank control group: PBS.
Positive control group: 2% DMSO.
Cells in good exponential growth phase were taken. A 0.25% trypsin digestion solution was added so that digestion allowed the adherent cells to fall off, counting 1 to 4×10^5 cells/mL, which were prepared into a cell suspension.
The cell suspension was inoculated into a 96-well plate with 200 μL/well, and cultured in a constant-temperature CO2 incubator for 24 h.
After changing the medium, samples of the polypeptide groups, the blank control group and the positive control group were added at 20 μL/well respectively, and incubated in a 5% CO2 incubator at 37° C. for 72 h.
20 μL of 5 mg/mL MTT was added to each well and the incubation was continued in the 5% CO2 incubator at 37° C. for 4 h. The original solution was removed and 150 μL/well of DMSO was added. After shaking the plate on a plate shaker for 5 min, a microplate reader was used to determine the OD value of each well at a wavelength of 570 nm, and the cell viability was calculated.
Cell viability=[OD (test sample well)−OD (zero adjustment well)]/[OD (blank control well)−OD (zero adjustment well)]×100%
The MTT assay is a method of detecting cell survival and growth. The measured OD values are directly proportional to cell viability. The higher the cell viability, the larger the OD value.

hyaluronidase = assay: Hyaluronidase inhibition experiment; format: biochemical; settings: FIG. 11; for hyaluronidase inhibition rate: at 100 ppm; for inhibition of hyaluronidase activity: at the tested concentrations (50 ppm and 100 ppm)
Source text: Spectrophotometer, phosphate buffered saline (PBS), hyaluronic acid, and hyaluronidase.
Peptide (13) and peptide (14). The test concentrations of all the above samples were 50 ppm and 100 ppm.
The experiment was divided into four groups: blank control group A1 (PBS+hyaluronidase), enzyme-free blank control group A2 (PBS+solvent without hyaluronidase), sample group B1 (samples to be tested+hyaluronidase), and enzyme-free sample group B2 (samples to be tested+solvent without hyaluronidase). The total reaction volume of each group was the same.
According to the grouping, 100 μL of CaCl2) (2.5 mmol/L) was mixed with 500 μL of hyaluronidase (500 U/mL) or solvent without hyaluronidase, and 20 μL of the mixture was taken and shaken in a 37° C. constant temperature gas bath oscillator for 20 min. The blank control group was added with 20 μL of PBS and shaken in a 37° C. constant temperature gas bath oscillator for 20 min. The sample groups were added with 20 μL of samples at different concentrations and shaken in a 37° C. constant temperature gas bath oscillator for 20 min. The above groups were added with 40 μL of hyaluronic acid and shaken in a 37° C. constant temperature gas bath oscillator for 40 min. 10 μL of acetylacetone solution was added and shaken in a 50° C. constant temperature gas bath oscillator for 10 min, then placed in an oven at 75° C. for 40 min and at 50° C. for 10 min. After the reaction was completed and cooled, the plastic wrap was quickly removed to avoid the generation of water vapor. Then 100 μL of 96% anhydrous ethanol and 10 μL of Ehrlich reagent were added, and the absorbances were measured at 492 nm.
Hyaluronidase can decompose hyaluronic acid in the body, converting it into low-molecular-weight acidic irritant, thereby causing the release of histamine and inducing sensitive symptoms in the body. In addition, the reduction of hyaluronic acid will destroy the skin barrier function, leading to the loss of moisture inside the skin. Therefore, inhibiting the activity of hyaluronidase can achieve the effects of soothing, moisturizing and repairing the skin barrier.

filaggrin (FLG) = assay: Filaggrin expression experiment (UV-irradiated HaCaT cells); format: cell-based, Human; settings: 80 mJ/cm^2 UV, 24 h, 10-50 ppm, compared with UV group, fluorescence staining, FIG. 10
Experimental: as §1
Polypeptide group: Peptide (4), peptide (9), peptide (13) and peptide (20). The test concentrations of all the above samples were 10 ppm and 50 ppm.
as §2
UV group: UV radiation with PBS.
The frozen HaCaT cells were cultured and passaged at a ratio of 1:2 to about the 5th generation, and the cells in better growth were selected as experiment subjects. The cell suspension was taken and inoculated into a 96-well plate at 10^4 cells/well, complete culture medium was added, and the mixture was cultured in a 5% CO2 incubator at 37° C. for 24 h. A UV photoaging model was established when the cells reached approximately 80% confluence. […]
After incubation, the cells were digested, grown on a cell climbing slice for 12 hours and then fixed. The cells were stained using a filaggrin (FLG) detection kit and observed under a fluorescence microscope after staining.
Filaggrin (FLG) is an important molecule that links keratin fibers in the stratum corneum of human skin. […] In this experiment, 80 mJ/cm^2 UV energy was selected for radiation to establish a skin stratum corneum cell model, and the effect of the sample on FLG expression was detected to analyze whether the peptides of the present invention can promote FLG expression.

hyaluronic acid = assay: Determination of hyaluronic acid content in HaCaT cells; format: cell-based, Human; settings: 12.5 ppm, 48 h, compared with blank control, FIG. 9
Experimental: as §1
Polypeptide group: Peptide (4), peptide (13) and peptide (20). The test concentrations of all the above samples were 12.5 ppm.
as §2
A bottle of HaCaT cells in good exponential growth phase was taken. A 0.25% trypsin digestion solution was added so that digestion allowed the adherent cells to fall off, counting 1 to 4×10^6 cells/mL, which were prepared into a cell suspension.
The cells were inoculated into a 6-well plate at 10^5 cells/well, and grouped when the cells reached approximately 80% confluence. […]
After completion of the culture, cells were scraped off using a cell scraper, and 200 μL of RIPA lysis buffer was added to extract proteins. […] The total protein concentration was quantified to 1 mg/mL using the BCA method. […] The OD value of each well was measured in sequence at 570 nm using a microplate reader within 15 min.
Hyaluronic acid is one of the main matrix ingredients of the human skin epidermis and an important component of the skin barrier. […] This experiment measured the effect of the peptide of the present invention on the hyaluronic acid content to determine whether the peptide of the invention can increase the hyaluronic acid content and thus play a role in moisturizing and anti-aging repair.

Compound: C[S+](C)[O-] [2% DMSO, dimethyl sulfoxide, reference compound]
- toxic effect on HaCaT cells (cell viability) ([1]; 72 h incubation, peptides at 6.25, 12.5 and 25 ppm, compared with blank control (PBS)): had a toxic effect on HaCaT cells

Compound: Palm-Lys-Val-Lys-Leu-Tyr-NH2 (Palmitoyl-KVKLY-NH2; SMILES CCCCCCCCCCCCCCCC(=O)N[C@@H](CCCCN)C(=O)N[C@H](C(=O)N[C@@H](CCCCN)C(=O)N[C@@H](CC(C)C)C(=O)N[C@@H](Cc1ccc(O)cc1)C(N)=O)C(C)C) [peptide (13)]
- hyaluronidase inhibition rate (hyaluronidase): 49.40%
- inhibition of hyaluronidase activity (hyaluronidase): inhibited the activity of hyaluronidase
- FLG content / FLG expression (filaggrin (FLG)): optimum technical effect

Compound: Palm-Lys-Val-Lys-Leu-Tyr-OH (Palmitoyl-KVKLY-OH; SMILES CCCCCCCCCCCCCCCC(=O)N[C@@H](CCCCN)C(=O)N[C@H](C(=O)N[C@@H](CCCCN)C(=O)N[C@@H](CC(C)C)C(=O)N[C@@H](Cc1ccc(O)cc1)C(=O)O)C(C)C) [peptide (14)]
- hyaluronidase inhibition rate (hyaluronidase): 40.96%
- inhibition of hyaluronidase activity (hyaluronidase): inhibited the activity of hyaluronidase

Compound: Palm-Val-Lys-Leu-Tyr-Gly-Ser-NH2 (Palmitoyl-VKLYGS-NH2; SMILES CCCCCCCCCCCCCCCC(=O)N[C@H](C(=O)N[C@@H](CCCCN)C(=O)N[C@@H](CC(C)C)C(=O)N[C@@H](Cc1ccc(O)cc1)C(=O)NCC(=O)N[C@@H](CO)C(N)=O)C(C)C) [peptide (9)]
- cell activity / proliferation of HaCaT keratinocytes [1]: significantly improve cell activity

Compound: Palmitoyl-G[Nle]KLY-NH2 [peptide (4)]
- hyaluronic acid content (hyaluronic acid): more superior technical effects

Compound: Palmitoyl-G[Nle]RLY-NH2 [peptide (20)]
- hyaluronic acid content (hyaluronic acid): more superior technical effects
- cell activity / proliferation of HaCaT keratinocytes [1]: significantly improve cell activity
